From PubChem BioAssay AID256 (DTP/NCI, 2004)
Several values for one entry are separate records, joined by “and”; a condition that tells them apart may be missing. Equal entries are not always repeated. Toxic doses and inconclusive results are not listed. How the source made its calls: active means survival T/C of 150% or more; inactive means T/C below 125% in these data.

System: CD2F1 mice, L1210 leukemia ip, survival T/C
Experiment: NCI In Vivo Anticancer Drug Screen. Data for tumor model L1210 Leukemia (intraperitoneal) in CD2F1 (CDF1) mice
Settings: higher = longer survival
Method in brief: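 Activity against a transplanted murine tumor was judged by comparing the compound group with a vehicle group. The outcome in the treated animals was divided by that in the controls.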

[1] = endpoint: mean survival time, dose: 100.0 mg/kg/injection, schedule: Q01DX001 (ip), vehicle: saline with Tween-80
[2] = endpoint: mean survival time, dose: 25.0 mg/kg/injection, schedule: Q04DX002 (ip), vehicle: saline with Tween-80
[3] = endpoint: mean survival time, dose: 50.0 mg/kg/injection, schedule: Q04DX002 (ip), vehicle: saline with Tween-80
[4] = endpoint: mean survival time, dose: 100.0 mg/kg/injection, schedule: Q01DX001 (ip), vehicle: saline
[5] = endpoint: mean survival time, dose: 200.0 mg/kg/injection, schedule: Q01DX001 (ip), vehicle: saline
[6] = endpoint: mean survival time, dose: 400.0 mg/kg/injection, schedule: Q01DX001 (ip), vehicle: saline
[7] = endpoint: mean survival time, dose: 25.0 mg/kg/injection, schedule: Q01DX009 (ip), vehicle: saline with Tween-80
[8] = endpoint: mean survival time, dose: 50.0 mg/kg/injection, schedule: Q01DX009 (ip), vehicle: saline with Tween-80
[9] = endpoint: mean survival time, dose: 100.0 mg/kg/injection, schedule: Q01DX009 (ip), vehicle: saline with Tween-80
[10] = endpoint: mean survival time, dose: 50.0 mg/kg/injection, schedule: Q01DX009 (ip), vehicle: Klucel (hydroxypropylcellulose) (HPC)
[11] = endpoint: mean survival time, dose: 100.0 mg/kg/injection, schedule: Q01DX009 (ip), vehicle: Klucel (hydroxypropylcellulose) (HPC)
[12] = endpoint: mean survival time, dose: 200.0 mg/kg/injection, schedule: Q01DX009 (ip), vehicle: Klucel (hydroxypropylcellulose) (HPC)
[13] = endpoint: mean survival time, dose: 8.0 mg/kg/injection, schedule: Q01DX009 (ip), vehicle: saline
[14] = endpoint: mean survival time, dose: 100.0 mg/kg/injection, schedule: Q04DX003 (ip), vehicle: saline with Tween-80
[15] = endpoint: mean survival time, dose: 200.0 mg/kg/injection, schedule: Q04DX003 (ip), vehicle: saline with Tween-80
[16] = endpoint: mean survival time, dose: 400.0 mg/kg/injection, schedule: Q04DX003 (ip), vehicle: saline with Tween-80
[17] = endpoint: mean survival time, dose: 200.0 mg/kg/injection, schedule: Q01DX009 (ip), vehicle: saline with Tween-80
[18] = endpoint: mean survival time, dose: 400.0 mg/kg/injection, schedule: Q01DX009 (ip), vehicle: saline with Tween-80
[19] = endpoint: mean survival time, dose: 25.0 mg/kg/injection, schedule: Q04DX003 (ip), vehicle: saline with Tween-80
[20] = endpoint: mean survival time, dose: 50.0 mg/kg/injection, schedule: Q04DX003 (ip), vehicle: saline with Tween-80

Measured: T/C

O=C(OC1C=Cc2ccccc21)c1ccc([N+](=O)[O-])cc1 (configuration not stated)
inactive: [1] 97 % of control | endpoint: mean survival time, dose: 200.0 mg/kg/injection, schedule: Q01DX001 (ip), vehicle: saline with Tween-80 90 % of control | endpoint: mean survival time, dose: 400.0 mg/kg/injection, schedule: Q01DX001 (ip), vehicle: saline with Tween-80 97 % of control

[N-]=C=S.[N-]=C=S.[NH-]N.[NH-]N.[Zn]
inactive: [2] 96 % of control | [3] 100 % of control | endpoint: mean survival time, dose: 100.0 mg/kg/injection, schedule: Q04DX002 (ip), vehicle: saline with Tween-80 102 % of control

O=c1c2cccc3c2-c2c4c(cccc14)c(O)c1cccc(c3=O)c21
inactive: endpoint: mean survival time, dose: 100.0 mg/kg/injection, schedule: Q04DX003 (ip), vehicle: saline sonified 94 % of control | endpoint: mean survival time, dose: 200.0 mg/kg/injection, schedule: Q04DX003 (ip), vehicle: saline sonified 95 % of control | endpoint: mean survival time, dose: 400.0 mg/kg/injection, schedule: Q04DX003 (ip), vehicle: saline sonified 92 % of control

O=C(/C=C/c1ccco1)c1cccnc1
inactive: [4] 94 % of control | [5] 100 % of control | [6] 100 % of control

Cc1cc(C)c(NC(=O)CC#N)c(C)c1
inactive: [7] 88 % of control | [8] 86 % of control | [9] 93 % of control

CCCCCCCCCCCCC1C(=O)NC(=O)NC1=O
inactive: endpoint: mean survival time, dose: 75.0 mg/kg/injection, schedule: Q01DX001 (ip), vehicle: saline 100 % of control | endpoint: mean survival time, dose: 150.0 mg/kg/injection, schedule: Q01DX001 (ip), vehicle: saline 99 % of control | endpoint: mean survival time, dose: 300.0 mg/kg/injection, schedule: Q01DX001 (ip), vehicle: saline 97 % of control

COc1ccc2ccccc2c1C1NC(=O)c2ccccc2N1 (configuration not stated)
inactive: endpoint: mean survival time, dose: 12.5 mg/kg/injection, schedule: Q01DX009 (ip), vehicle: Klucel (hydroxypropylcellulose) (HPC) 95 % of control and 102 % of control | endpoint: mean survival time, dose: 25.0 mg/kg/injection, schedule: Q01DX009 (ip), vehicle: Klucel (hydroxypropylcellulose) (HPC) 101 % of control and 102 % of control | [10] 105 % of control and 107 % of control | [11] 101 % of control and 104 % of control | [12] 104 % of control and 105 % of control | endpoint: mean survival time, dose: 400.0 mg/kg/injection, schedule: Q01DX009 (ip), vehicle: Klucel (hydroxypropylcellulose) (HPC) 119 % of control and 96 % of control

O=C(NCCCCCCCCCCNC(=O)Nc1ccc(C2=NCCCN2)cc1)Nc1ccc(C2=NCCCN2)cc1
inactive: endpoint: mean survival time, dose: 5.0 mg/kg/injection, schedule: Q01DX009 (ip), vehicle: saline 103 % of control | [13] 117 % of control | endpoint: mean survival time, dose: 19.0 mg/kg/injection, schedule: Q01DX009 (ip), vehicle: saline 121 % of control

CSc1cc(C)n2nnnc2n1
inactive: [4] 101 % of control

Cc1cc2c(-c3ccccc3)c(-c3ccccc3)oc(=O)c2cc1C
inactive: [14] 95 % of control | [15] 90 % of control | [16] 92 % of control

OCC(O)C(O)C(O)C(O)C(O)CO (configuration not stated)
inactive: [10] 98 % of control | [11] 102 % of control | endpoint: mean survival time, dose: 100.0 mg/kg/injection, schedule: Q01DX009 (ip), vehicle: saline 98 % of control | endpoint: mean survival time, dose: 100.0 mg/kg/injection, schedule: Q04DX002 (ip), vehicle: saline 100 % of control | [12] 98 % of control | endpoint: mean survival time, dose: 200.0 mg/kg/injection, schedule: Q01DX009 (ip), vehicle: saline 91 % of control | endpoint: mean survival time, dose: 200.0 mg/kg/injection, schedule: Q04DX002 (ip), vehicle: saline 107 % of control | endpoint: mean survival time, dose: 400.0 mg/kg/injection, schedule: Q01DX009 (ip), vehicle: saline 102 % of control | endpoint: mean survival time, dose: 400.0 mg/kg/injection, schedule: Q04DX002 (ip), vehicle: saline 96 % of control

COc1ccc(C2(C)OCCCC2([NH-])C[NH-])cc1.[Cl][Pt+2][Cl] (configuration not stated)
inactive: endpoint: median survival time, dose: 10.0 mg/kg/injection, schedule: Q04DX003 (ip), vehicle: saline 105 % of control | endpoint: median survival time, dose: 20.0 mg/kg/injection, schedule: Q04DX003 (ip), vehicle: saline 103 % of control | endpoint: median survival time, dose: 40.0 mg/kg/injection, schedule: Q04DX003 (ip), vehicle: saline 105 % of control | endpoint: median survival time, dose: 80.0 mg/kg/injection, schedule: Q04DX003 (ip), vehicle: saline with Tween-80 100 % of control | endpoint: median survival time, dose: 80.0 mg/kg/injection, schedule: Q04DX003 (ip), vehicle: saline 95 % of control | endpoint: median survival time, dose: 160.0 mg/kg/injection, schedule: Q04DX003 (ip), vehicle: saline with Tween-80 110 % of control | endpoint: median survival time, dose: 320.0 mg/kg/injection, schedule: Q04DX003 (ip), vehicle: saline with Tween-80 115 % of control

CC1C(=O)C(=O)C(CCc2ccccc2)C1=O (configuration not stated)
inactive: [9] 97 % of control | [17] 102 % of control | [18] 109 % of control

O=S(=O)(O)SCCN1CCCC1
inactive: endpoint: mean survival time, dose: 12.5 mg/kg/injection, schedule: Q01DX009 (ip), vehicle: saline 107 % of control | endpoint: mean survival time, dose: 12.5 mg/kg/injection, schedule: Q04DX003 (ip), vehicle: saline sonified 101 % of control | endpoint: mean survival time, dose: 25.0 mg/kg/injection, schedule: Q01DX009 (ip), vehicle: saline 104 % of control | endpoint: mean survival time, dose: 25.0 mg/kg/injection, schedule: Q04DX003 (ip), vehicle: saline sonified 98 % of control | endpoint: mean survival time, dose: 50.0 mg/kg/injection, schedule: Q01DX009 (ip), vehicle: saline 102 % of control | endpoint: mean survival time, dose: 50.0 mg/kg/injection, schedule: Q04DX003 (ip), vehicle: saline sonified 96 % of control

Cc1ccccc1C[P+](c1ccccc1)(c1ccccc1)c1ccccc1
inactive: endpoint: mean survival time, dose: 1.0 mg/kg/injection, schedule: Q01DX009 (ip), vehicle: saline 88 % of control | endpoint: mean survival time, dose: 2.0 mg/kg/injection, schedule: Q01DX009 (ip), vehicle: saline 96 % of control | endpoint: mean survival time, dose: 4.0 mg/kg/injection, schedule: Q01DX009 (ip), vehicle: saline 92 % of control | [13] 108 % of control

COC1(OC)C2C=CC1CC2
inactive: endpoint: mean survival time, dose: 12.5 mg/kg/injection, schedule: Q01DX009 (ip), vehicle: saline with Tween-80 105 % of control | [7] 100 % of control | [8] 109 % of control | [9] 103 % of control | [17] 103 % of control | [18] 114 % of control

CCOc1c(C#N)c2c(N)ncnc2n1C1OC(CO)C(O)C1O (configuration not stated)
inactive: endpoint: mean survival time, dose: 12.5 mg/kg/injection, schedule: Q01DX009 (ip), vehicle: distilled water + Tween-80 103 % of control | endpoint: mean survival time, dose: 25.0 mg/kg/injection, schedule: Q01DX009 (ip), vehicle: distilled water + Tween-80 112 % of control | endpoint: mean survival time, dose: 50.0 mg/kg/injection, schedule: Q01DX009 (ip), vehicle: distilled water + Tween-80 112 % of control | endpoint: mean survival time, dose: 100.0 mg/kg/injection, schedule: Q01DX009 (ip), vehicle: distilled water + Tween-80 117 % of control

CC1CC(C)(C)CC2(C1)OCC(CCl)O2 (configuration not stated)
inactive: endpoint: mean survival time, dose: 100.0 mg/kg/injection, schedule: Q01DX009 (ip), vehicle: saline sonified 95 % of control | endpoint: mean survival time, dose: 200.0 mg/kg/injection, schedule: Q01DX009 (ip), vehicle: saline sonified 87 % of control | endpoint: mean survival time, dose: 400.0 mg/kg/injection, schedule: Q01DX009 (ip), vehicle: saline sonified 106 % of control

CC(C)C(=O)/C=C/c1ccccc1
inactive: [14] 102 % of control | [15] 103 % of control | [16] 102 % of control

COc1cc(C=Nc2cc(Cl)ccc2-n2ccnc2C)ccc1N(CCCl)CCCl
inactive: endpoint: mean survival time, dose: 12.5 mg/kg/injection, schedule: Q04DX003 (ip), vehicle: saline with Tween-80 117 % of control | [19] 113 % of control | [20] 118 % of control | [15] 115 % of control | [16] 89 % of control

c1ccc(P(c2cccc3ccccc23)c2cccc3ccccc23)cc1
inactive: [4] 93 % of control | [5] 93 % of control | [6] 91 % of control

O/N=C\c1ccc(/C=N/O)cc1
inactive: [14] 94 % of control | [15] 92 % of control

Cc1ccc(NC2=NCCS2)c(C)c1
inactive: endpoint: mean survival time, dose: 25.0 mg/kg/injection, schedule: Q01DX001 (ip), vehicle: saline with Tween-80 106 % of control | [7] 89 % of control and 95 % of control | [2] 104 % of control and 106 % of control | [19] 101 % of control | endpoint: mean survival time, dose: 50.0 mg/kg/injection, schedule: Q01DX001 (ip), vehicle: saline with Tween-80 106 % of control | [8] 97 % of control and 103 % of control | [3] 95 % of control and 110 % of control | [20] 98 % of control | [1] 102 % of control | [9] 103 % of control | [14] 96 % of control
